The values below come from BindingDB's records for doi:10.1016/j.bmcl.2005.09.045 (University of Leeds, 2006).

SMILES strings stand for the structures.

This experiment has as its target T1, Dihydroorotate dehydrogenase (quinone), mitochondrial (Plasmodium falciparum (isolate 3D7), UniProt Q08210).
T1 sequence (Q08210 whole entry): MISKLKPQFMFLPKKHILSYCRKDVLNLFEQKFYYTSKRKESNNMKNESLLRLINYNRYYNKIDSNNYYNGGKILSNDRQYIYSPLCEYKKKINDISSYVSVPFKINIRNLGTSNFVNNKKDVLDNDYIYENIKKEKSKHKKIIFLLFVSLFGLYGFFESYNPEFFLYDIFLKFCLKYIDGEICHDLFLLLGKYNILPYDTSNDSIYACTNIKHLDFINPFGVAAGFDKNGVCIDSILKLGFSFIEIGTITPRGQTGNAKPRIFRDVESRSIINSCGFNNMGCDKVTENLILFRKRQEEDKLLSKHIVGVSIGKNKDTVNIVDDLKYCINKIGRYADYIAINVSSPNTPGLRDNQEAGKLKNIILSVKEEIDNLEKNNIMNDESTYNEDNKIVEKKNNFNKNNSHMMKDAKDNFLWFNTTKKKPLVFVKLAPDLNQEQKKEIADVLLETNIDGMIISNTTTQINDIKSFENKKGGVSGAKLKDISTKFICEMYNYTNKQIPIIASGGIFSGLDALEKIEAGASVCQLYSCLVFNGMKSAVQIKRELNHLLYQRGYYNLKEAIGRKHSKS
Briefly: DHODH Inhibition Assay. As to conditions: pH 8; 25 °C. How it is done: The assays were carried out by using a colorimetric DCIP method, which uses the colorimetric reagent 2, 6-dichlorophenolindophenol as the final electron acceptor. DCIP reduction is stoichiometrically equivalent to oxidation of dihydroorotate. Changes in absorbance were quantified in triplicate on a plate reader and data were analyzed to measure the reduction of DCIP as a decrease in absorbance at 600 nm. The data were then processed with Graphpad Prism to determine the IC50 and the apparent enzyme inhibition constant (Ki) for each inhibitor. Ki values were calculated using the Cheng-Prusoff equation with the Km for CoQD of 13 uM and 15 uM for PfDHODH and HsDHODH respectively.

In general, IC50 refers to the point on the concentration scale where inhibition reaches its midpoint. `O=C(Nc1ccccc1C(=O)O)c1ccc2ccccc2c1` [2-(naphthalene-2-amido)benzoic acid] showed an IC50 greater than 200 µM.
The result for `CN(C(=O)c1ccc2ccccc2c1)c1ccccc1C(=O)O` [2-[methyl(naphthalene-2-)amido]benzoic acid] reads greater than 200 µM.
